Measurements as given in patent US20240216344A1, “THIAZOLIDINEDIONE ANALOGS FOR THE TREATMENT OF NAFLD AND METABOLIC DISEASES” (Cirius Therapeutics, Inc., priority 2019, published 2024).

How the values were obtained:
[1] = tested on: patients with NASH; test: Meta-analysis of 17 NASH clinical trials: change from baseline in histological components and endpoint counts; type: in vivo, human; details: EMMINENCE trial
Procedure: Meta-regressions of NASH clinical trials were performed to examine associations between biomarker and histological changes within treatment groups, and to additionally examine associations between treatment effects on biomarkers and on liver histology. Trials that met the following criteria were included: • Randomized controlled clinical trial • Paired biopsies performed at baseline and follow-up, scored using the NASH CRN system.
• Published results at baseline, follow-up, or changes from baseline for any the following liver injury markers or biomarkers: alanine aminotransferase (ALT), aspartate aminotransferase (AST), alkaline phosphatase, hemoglobin A1c (HbA1c), gamma-glutamyltransferase (GGT), insulin, cytokeratin-18 (CK-18), or Enhanced Liver Fibrosis (ELF) score. Variables selected were based on variables whose change was commonly reported in multiple studies. • Changes in histological scores for ballooning, inflammation, steatosis, and fibrosis, or the pre-determined endpoints of NASH resolution without worsening fibrosis or improvement in fibrosis with no worsening of NASH.
All results from a search of PubMed for the keywords (“nonalcoholic steatohepatitis” or “non-alcoholic steatohepatitis”) and (“clinical trial” or “randomized”) and filtered for “Clinical Trial” were reviewed. EudraCT and ClinicalTrials.gov were searched for the keyword “nonalcoholic steatohepatitis” with results further filtered for phase 2 or 3, interventional, terminated or completed trials. These three sources returned 265 (PubMed), 153 (ClinicalTrials.gov), and 56 (EudraCT) results, which were each individually reviewed for inclusion in the analysis. Data extracted by one analyst from each source that included means and SDs at baseline, end of study, and changes from baseline to end of study for continuous variables were verified and corrected by a second analyst. Where SDs were not available, any provided estimate of variation was used to derive the SD where possible; a plot-digitizer program was used where data were presented in figures only. Data for dichotomous endpoints were extracted as the number of subjects with the event and corresponding sample size.
All studies included in the current meta-analysis used the NASH CRN histological scoring system for the scoring of the liver biopsy components. The two dichotomous endpoints considered were based on the currently approvable endpoints per FDA guidelines: NASH resolution without worsening of fibrosis, and fibrosis improvement without worsening of NASH.
Random effects weighted least squares meta-regressions with inverse variance weighting were used to examine the association of changes in ALT, AST, CK-18, HbA1c, fasting insulin levels, ELF, alkaline phosphatase and GGT with biopsy outcomes. CK-18[M30] was measured in all studies except EMMINENCE where CK-18[M651 was reported. These associations were assessed at an individual cohort level (within treatment group), as well as based on the treatment effect. Percent change from baseline in liver injury makers and biomarkers was used as the predictor when examining the associations in the individual cohorts with outcomes while the treatment ratio, the ratio of active to placebo with respect to the relative changes from baseline, was used as the predictor when assessing the association with the treatment effect on outcomes. Standardized mean changes (mean/SD) or standardized mean treatment differences (mean difference/pooled SD) were used for continuous outcomes and Freeman-Tukey double arcsine transformed proportions or log odds ratios were used for dichotomous outcomes. Meta-regression results were computed using the metafor package available in R. P-values <0.05 were considered statistically significant.

[2] = tested on: patients with biopsy-confirmed NASH; test: EMMINENCE post hoc multivariable models and canonical correlation of biomarker changes with histological changes; parameters: species or system human
Excerpt: EMMINENCE was a phase 2 study examining the effects of three doses of MSDC-0602K versus placebo on liver histology in 392 patients with biopsy-confirmed nonalcoholic steatohepatitis (NASH). Patients provided written informed consent, and the protocol and consent form were approved by applicable institutional review boards. Baseline and 12-month biopsies were scored by a single expert hepatopathologist using the NASH Clinical Research Network (CRN) scoring criteria. Fasting blood samples for routine clinical chemistry as well as frozen samples for biomarker assays were analyzed centrally. In this post hoc analysis, multivariable models and partial canonical correlation were used to examine the associations between changes in biomarkers and changes in histological scores from baseline to 12 months in the 339 patients with paired biopsies. The trial was registered on ClinicalTrials.gov (NCT02784444).
Individual patient data from the 339 subjects with paired biopsy results in EMMINENCE were used to construct univariable and multivariable ANCOVA models for the 12-month change in each histological component (steatosis, inflammation, ballooning, and fibrosis). Candidate predictors included age, sex, type 2 diabetes (T2D) history, and baseline and 12-month changes in weight and laboratory parameters (liver injury markers, cholesterols, insulin sensitivity markers, ELF, CK-18). Non-linearity of the association between each continuous predictor and each outcome was examined by assessing the significance of the non-linear components of a restricted cubic spline transformation for each predictor. Appropriate transformations (quadratic, cubic, linear spline, log 2) were applied where deemed necessary based on review of the Akaike's Information Criterion and visual examination of plots of the predicted outcomes against each predictor. Due to issues with estimating the associations when severe multicollinearity exists between predictors in the model, ALT (collinear with AST) and waist circumference (collinear with weight) were excluded as candidate predictors. Multiple imputation with ten imputed datasets and assuming multivariate normality was used to handle missing values. The occurrence of missing data for any of the predictors was relatively low ([…] missing one or more predictor values). Rubin's algorithm was used for average estimates for predictors across the imputed datasets. Backwards selection was used for each outcome, with predictors remaining in a majority of the ten imputed datasets at the 0.05 significance level (>5) included in the final model. Each model was adjusted for the baseline value of the outcome. If a change from baseline predictor was included in the final model, then the baseline value for the parameter was also included in the final model.
A second multivariable model was fit for each outcome including the predictors found prognostic for any of the biopsy component changes. A multivariable ANCOVA model that included these predictors was run for NAS (the sum of ballooning, inflammation, and steatosis scores). Multivariable logistic regression models that included these predictors were also run for the binary outcomes of NASH resolution without worsening of fibrosis and fibrosis improvement without worsening of NASH.
A partial canonical correlation using individual patient data from EMMINENCE examined the correlation of changes in weight, AST, HbA1c, GGT, CK-18 (taken together) with changes in ballooning, inflammation, steatosis, and fibrosis (taken together) adjusted for those baseline variables prognostic of any of the histological feature changes in the multivariable models in the 306 subjects with complete observed data for the variables involved. This analysis results in “canonical variates” that are linear combinations of the original sets of variables weighted in such a way as to maximize the correlation between them. […]

[3] = effect size for a change of 20 in MSDC-0602K Dose, multivariable model with dose added
[4] = effect size for a change of 20 in MSDC-0602K Dose, univariable model

COc1cccc(C(=O)COc2ccc(CC3SC(=O)NC3=O)cc2)c1 (stereo not drawn) [MSDC-0602K]
Change from Baseline, mean: Ballooning ([1]; MSDC-0602K 62.5 mg): −0.36 | Change from Baseline, mean: Fibrosis ([1]; MSDC-0602K 62.5 mg): 0.06 | Change from Baseline, mean: Inflammation ([1]; MSDC-0602K 62.5 mg): −0.08 | Change from Baseline, mean: Steatosis ([1]; MSDC-0602K 62.5 mg): −0.57 | Fibrosis Improvement ([1]; MSDC-0602K 62.5 mg): 20/99 | NASH Resolution ([1]; MSDC-0602K 62.5 mg): 17/99 | Change from Baseline, mean: Ballooning ([1]; MSDC-0602K 125 mg): −0.42 | Change from Baseline, mean: Fibrosis ([1]; MSDC-0602K 125 mg): −0.12 | Change from Baseline, mean: Inflammation ([1]; MSDC-0602K 125 mg): −0.22 | Change from Baseline, mean: Steatosis ([1]; MSDC-0602K 125 mg): −0.51 | Fibrosis Improvement ([1]; MSDC-0602K 125 mg): 23/98 | NASH Resolution ([1]; MSDC-0602K 125 mg): 23/98 | Change from Baseline, mean: Ballooning ([1]; MSDC-0602K 250 mg): −0.38 | Change from Baseline, mean: Fibrosis ([1]; MSDC-0602K 250 mg): −0.06 | Change from Baseline, mean: Inflammation ([1]; MSDC-0602K 250 mg): −0.12 | Change from Baseline, mean: Steatosis ([1]; MSDC-0602K 250 mg): −0.67 | Fibrosis Improvement ([1]; MSDC-0602K 250 mg): 25/101 | NASH Resolution ([1]; MSDC-0602K 250 mg): 27/101 | Effect Size, change from baseline in steatosis, Multivariable Model ([2]; MSDC-0602K Dose, multivariable model with dose added, size of change not given): −0.03 | Effect Size for a change of 20 in MSDC-0602K Dose; outcome change from baseline in fibrosis ([2]; Multivariable model): −0.01 | Effect Size for change of 20 in MSDC-0602K Dose; outcome NAS ([2]; Multivariable model): −0.03 | Effect Size for a change of 20 in MSDC-0602K Dose; outcome change from baseline in fibrosis ([2]; Univariable Model): −0.02 | Effect Size, change from baseline in ballooning, Multivariable Model [2, 3]: −0.02 | Effect Size, change from baseline in inflammation, Multivariable Model [2, 3]: 0.01 | Effect Size, change from baseline in ballooning, Univariable Model [2, 4]: −0.01 | Effect Size, change from baseline in inflammation, Univariable Model [2, 4]: −0.01 | Effect Size, change from baseline in steatosis, Univariable Model [2, 4]: −0.03
